Reference: article PMC6225345, “Structural Characterization of the Lactobacillus Plantarum FlmC Protein Involved in Biofilm Formation” (Molecules : A Journal of Synthetic Chemistry and Natural …, 2018)

Target: T1, ΔTM-FlmC (FlmC81-335) (Lactiplantibacillus plantarum, UniProt F9UMI5)
T1 construct: gene lp_1000
Assay: co-purification from E. coli; organic extraction of unfolded protein, TLC and UHPLC-HRMS
Assay type: binding
Conditions: lipid acquired from expression host; identity inferred from m/z 775.5789 (+, in-source dehydro form) and 387.2863 (2-), tentative

T1 sequence (F9UMI5 entry or part of it, stated change not applied): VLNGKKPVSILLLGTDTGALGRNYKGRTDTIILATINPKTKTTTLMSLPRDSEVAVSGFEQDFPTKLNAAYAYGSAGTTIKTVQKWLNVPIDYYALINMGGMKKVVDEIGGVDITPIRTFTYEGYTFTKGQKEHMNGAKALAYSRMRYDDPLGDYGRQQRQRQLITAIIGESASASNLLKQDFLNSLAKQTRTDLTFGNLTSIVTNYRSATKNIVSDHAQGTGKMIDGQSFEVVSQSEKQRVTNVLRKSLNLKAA

CC(C)=CCCC(C)=CCCC(C)=CCCC(C)=CCCC(C)=CCCC(C)=CCCC(C)=CCCC(C)=CCCC(C)=CCCC(C)=CCOP(=O)(O)O [decaprenyl phosphate]
co-purification from E. coli; organic extraction of unfolded protein, TLC and UH: occurrence of a decaprenyl phosphate (dpr-P) ligand tightly bound to the protein was hypothesized
